In general, IC50 refers to the concentration at which inhibition is half-maximal. Read a low IC50 as higher potency.

What all share (assay type): cell-based
One experiment concerns the target T1, human TLR9 (Homo sapiens, UniProt Q9NR96).
T1 construct: host or cells: HEK-Blue cells
T1 sequence (Q9NR96 26-1032): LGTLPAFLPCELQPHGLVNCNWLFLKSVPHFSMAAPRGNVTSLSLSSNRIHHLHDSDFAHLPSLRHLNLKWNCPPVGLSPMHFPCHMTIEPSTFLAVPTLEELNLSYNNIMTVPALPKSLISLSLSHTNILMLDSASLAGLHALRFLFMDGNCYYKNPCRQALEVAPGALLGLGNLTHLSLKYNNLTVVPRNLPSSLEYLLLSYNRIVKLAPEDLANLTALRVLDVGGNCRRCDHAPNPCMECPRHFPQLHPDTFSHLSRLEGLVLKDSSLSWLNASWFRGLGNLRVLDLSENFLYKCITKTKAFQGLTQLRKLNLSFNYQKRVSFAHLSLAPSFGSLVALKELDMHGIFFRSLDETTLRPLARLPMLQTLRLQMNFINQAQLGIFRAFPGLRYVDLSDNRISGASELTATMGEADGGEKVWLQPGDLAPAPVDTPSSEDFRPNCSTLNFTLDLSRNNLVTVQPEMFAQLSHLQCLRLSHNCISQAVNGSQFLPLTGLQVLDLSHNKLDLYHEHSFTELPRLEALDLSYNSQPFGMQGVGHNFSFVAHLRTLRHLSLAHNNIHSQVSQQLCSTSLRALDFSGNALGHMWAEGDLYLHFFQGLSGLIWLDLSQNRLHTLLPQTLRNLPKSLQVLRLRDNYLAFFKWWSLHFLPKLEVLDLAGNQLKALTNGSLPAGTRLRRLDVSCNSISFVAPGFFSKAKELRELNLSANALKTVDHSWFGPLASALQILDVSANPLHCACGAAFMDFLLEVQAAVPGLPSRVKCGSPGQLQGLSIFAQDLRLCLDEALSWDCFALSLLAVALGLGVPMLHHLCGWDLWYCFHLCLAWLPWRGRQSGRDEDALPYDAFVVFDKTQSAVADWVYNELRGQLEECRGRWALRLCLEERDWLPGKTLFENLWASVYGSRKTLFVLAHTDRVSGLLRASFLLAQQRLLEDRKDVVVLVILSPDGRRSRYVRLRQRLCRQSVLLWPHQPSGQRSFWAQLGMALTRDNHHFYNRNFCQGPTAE
The experiment can be described thus: TLR9 inhibition reporter assay (HEK-Blue SEAP). Conditions: HEK-Blue cells overexpressing human TLR9, stimulated with ODN2006 5 nM, 22 hour incubation. The procedure, abridged: (§1)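 HEK-Blue cells overexpressing human TLR7, TLR8 or TLR9 with an NF-κB/AP-1-driven SEAP reporter were pre-treated 30 min at room temperature with compound (0.05 nM to 50 μM), then stimulated with gardiquimod 7.5 μM (TLR7), R848 15.9 μM (TLR8) or ODN2006 5 nM (TLR9). SEAP measured after 22 h at 37° C; inhibition normalized between agonist-plus-DMSO and reference-inhibitor wells.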

A further experiment addresses T2, human TLR8 (Homo sapiens, UniProt Q9NR97).
T2 construct: host or cells: HEK-Blue cells
T2 sequence (Q9NR97 27-1041): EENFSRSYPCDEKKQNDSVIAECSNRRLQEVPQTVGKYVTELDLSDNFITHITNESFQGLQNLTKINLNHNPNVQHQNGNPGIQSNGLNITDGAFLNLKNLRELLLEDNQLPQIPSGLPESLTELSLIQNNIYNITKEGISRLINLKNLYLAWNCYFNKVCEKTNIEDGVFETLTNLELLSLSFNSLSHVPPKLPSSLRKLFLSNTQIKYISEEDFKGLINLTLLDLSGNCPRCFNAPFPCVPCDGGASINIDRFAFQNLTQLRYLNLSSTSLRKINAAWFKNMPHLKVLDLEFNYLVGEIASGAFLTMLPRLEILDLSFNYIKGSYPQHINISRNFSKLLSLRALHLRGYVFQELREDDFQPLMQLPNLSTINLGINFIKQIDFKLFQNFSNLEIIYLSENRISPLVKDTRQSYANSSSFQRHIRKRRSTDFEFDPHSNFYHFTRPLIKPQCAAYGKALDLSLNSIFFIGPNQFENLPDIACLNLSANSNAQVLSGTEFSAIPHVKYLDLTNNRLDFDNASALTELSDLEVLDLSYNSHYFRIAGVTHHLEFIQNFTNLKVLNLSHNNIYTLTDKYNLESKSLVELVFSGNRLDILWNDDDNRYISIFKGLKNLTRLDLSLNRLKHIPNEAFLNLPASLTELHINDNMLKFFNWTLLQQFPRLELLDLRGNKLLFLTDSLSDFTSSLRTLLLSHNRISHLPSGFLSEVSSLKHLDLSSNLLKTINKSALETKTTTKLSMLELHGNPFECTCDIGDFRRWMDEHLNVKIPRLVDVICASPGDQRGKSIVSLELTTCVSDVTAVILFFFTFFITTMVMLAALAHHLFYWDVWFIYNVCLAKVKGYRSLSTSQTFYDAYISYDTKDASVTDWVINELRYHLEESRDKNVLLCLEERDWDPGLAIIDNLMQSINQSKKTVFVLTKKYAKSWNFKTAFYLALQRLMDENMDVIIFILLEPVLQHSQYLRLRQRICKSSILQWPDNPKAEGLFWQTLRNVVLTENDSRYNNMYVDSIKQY
The experiment can be described thus: TLR8 inhibition reporter assay (HEK-Blue SEAP). Conditions: HEK-Blue cells overexpressing human TLR8, stimulated with R848 15.9 μM, 22 hour incubation. The method, boiled down:
as §1
(Reporter assays use an easily measured gene product as a stand-in for the process of interest.)

The next experiment deals with T3, human TLR7 (Homo sapiens, UniProt Q9NYK1).
T3 construct: host or cells: HEK-Blue cells
T3 sequence (Q9NYK1 27-1049): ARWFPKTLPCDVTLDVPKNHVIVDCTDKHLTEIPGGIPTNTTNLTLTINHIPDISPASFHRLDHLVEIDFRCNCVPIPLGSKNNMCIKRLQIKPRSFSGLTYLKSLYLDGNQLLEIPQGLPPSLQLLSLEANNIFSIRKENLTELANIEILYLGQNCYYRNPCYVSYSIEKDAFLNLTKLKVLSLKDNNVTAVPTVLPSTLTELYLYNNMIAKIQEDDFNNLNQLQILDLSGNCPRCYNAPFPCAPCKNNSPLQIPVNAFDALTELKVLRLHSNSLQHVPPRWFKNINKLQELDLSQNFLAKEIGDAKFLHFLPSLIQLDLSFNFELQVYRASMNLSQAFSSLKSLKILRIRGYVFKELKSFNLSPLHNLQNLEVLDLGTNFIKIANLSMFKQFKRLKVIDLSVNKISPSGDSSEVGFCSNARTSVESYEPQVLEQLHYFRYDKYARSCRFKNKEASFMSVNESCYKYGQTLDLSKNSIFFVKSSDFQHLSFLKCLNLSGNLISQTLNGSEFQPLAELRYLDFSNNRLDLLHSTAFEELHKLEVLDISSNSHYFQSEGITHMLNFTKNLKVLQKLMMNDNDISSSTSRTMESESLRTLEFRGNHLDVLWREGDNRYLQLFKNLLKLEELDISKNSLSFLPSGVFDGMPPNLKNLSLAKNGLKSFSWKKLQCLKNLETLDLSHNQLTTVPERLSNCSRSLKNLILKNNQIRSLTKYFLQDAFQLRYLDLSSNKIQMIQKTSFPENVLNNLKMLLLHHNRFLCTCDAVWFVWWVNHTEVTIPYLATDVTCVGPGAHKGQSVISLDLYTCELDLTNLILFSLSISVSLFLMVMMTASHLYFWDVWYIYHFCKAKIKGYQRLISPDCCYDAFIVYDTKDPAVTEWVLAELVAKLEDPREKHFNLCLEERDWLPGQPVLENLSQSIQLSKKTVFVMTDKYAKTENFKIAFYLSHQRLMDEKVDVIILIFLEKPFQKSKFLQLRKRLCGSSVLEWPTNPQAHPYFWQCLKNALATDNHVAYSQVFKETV
The experiment can be described thus: TLR7 inhibition reporter assay (HEK-Blue SEAP). The following applies: HEK-Blue cells overexpressing human TLR7, stimulated with gardiquimod 7.5 μM, 22 hour incubation. The method, boiled down: as §1

In the case of `COc1cc(-c2cc(C)c3cn[nH]c3c2)cn2ncnc12` [Example 66, 8-methoxy-6-(4-methyl-1H-indazol-6-yl)-[1,2,4]triazolo[1,5-a] pyridine], the IC50 against human TLR9 is 8840 nM; on human TLR8 it was 45.4 nM; against human TLR7 it was 218 nM.
The corresponding values for `Cc1cc(-c2cc(C)c3ncnn3c2)cc2[nH]cc(C3CCNCC3)c12` [Example 2, 8-methyl-6-(4-methyl-3-(piperidin-4-yl)-1H-indol-6-yl)-[1,2,4]triazolo[1,5-a]pyridine] are 1040 nM, 19.9 nM and 0.9 nM.
On the same counts, the results for `Cc1cc2c(N)n[nH]c2cc1-c1cc(C)c2ncnn2c1` [Example 201, 5-methyl-6-(8-methyl-[1,2,4]triazolo[1,5-a]pyridin-6-yl)-1H-indazol-3-amine] are not below 50000 nM, 55.7 nM and 857 nM.
`Cc1cc(-c2cc3[nH]nc(C4CCC(N5CC6(CCO6)C5)CC4)c3cc2C(C)C)cn2ncnc12` (stereo not drawn) [Example 156, 6-(4-(5-isopropyl-6-(8-methyl-[1,2,4]triazolo[1,5-a]pyridin-6-yl)-1H-indazol-3-yl)cyclohexyl)-1-oxa-6-azaspiro[3.3]heptane]: the IC50 against human TLR9 was 6110 nM; at human TLR8 it was 0.1 nM; at human TLR7 it was 0.8 nM.
The corresponding values for `Cc1cc(-c2cc(C)c3ncnn3c2)cc2[nH]nc(OC3CCN(CC#N)CC3)c12` [Example 194, 2-(4-((4-methyl-6-(8-methyl-[1,2,4]triazolo[1,5-a]pyridin-6-yl)-1H-indazol-3-yl)oxy)piperidin-1-yl)acetonitrile] are 1660 nM, 1.9 nM and 7.2 nM.
On the same counts, the results for `CCc1cc2c(C3CCN(Cc4cn(C)nn4)CC3)n[nH]c2cc1-c1cc(C)c2ncnn2c1` [Example 105, 6-(5-ethyl-3-(1-((1-methyl-1H-1,2,3-triazol-4-yl)methyl)piperidin-4-yl)-1H-indazol-6-yl)-8-methyl-[1,2,4] triazolo[1,5-a]pyridine] are 8780 nM, 0.1 nM and 5.1 nM.
On the same counts, the results for `CCc1cc2c(C3CCN(C(C)C)CC3)n[nH]c2cc1-c1cc(C)c2ncnn2c1` [Example 90, 6-(5-ethyl-3-(1-isopropylpiperidin-4-yl)-1H-indazol-6-yl)-8-methyl-[1,2,4]triazolo[1,5-a]pyridine] are 7940 nM, 0.1 nM and 2.6 nM.
On to `Cc1cc(-c2cc(C)c3ncnn3c2)cc2[nH]nc(OC3CCC(N(C)C)CC3)c12` (single isomer, unassigned) [Example 180, N,N-dimethyl-4-((4-methyl-6-(8-methyl-[1,2,4]triazolo[1,5-a]pyridin-6-yl)-1H-indazol-3-yl)oxy)cyclohexan-1-amine], for which the IC50 was found to be 3260 nM against human TLR9, 2.3 nM against human TLR8 and 2.6 nM against human TLR7.
On the same counts, the results for `Cc1cc(-c2cc3[nH]nc(N4CCN(C5CCOCC5)CC4)c3cc2C(C)C)cn2ncnc12` [Example 207, 6-(5-isopropyl-3-(4-(tetrahydro-2H-pyran-4-yl)piperazin-1-yl)-1H-indazol-6-yl)-8-methyl-[1,2,4]triazolo[1,5-a]pyridine] are 33300 nM, 0.15 nM and 6.5 nM.
The corresponding values for `COc1cc(-c2cc3[nH]nc(C4CCC(N(C)C)CC4)c3cc2C(C)C)cn2ncnc12` (single isomer, unassigned) [Example 141, 4-(5-isopropyl-6-(8-methoxy-[1,2,4]triazolo[1,5-a]pyridin-6-yl)-1H-indazol-3-yl)-N,N-dimethylcyclohexan-1-amine] are 3720 nM, 2.9 nM and 5.3 nM.
`Cc1cc2c(C3CCN(CC(N)=O)CC3)n[nH]c2cc1-c1cc(C)c2ncnn2c1` [Example 70, 2-(4-(5-methyl-6-(8-methyl-[1,2,4]triazolo[1,5-a]pyridin-6-yl)-1H-indazol-3-yl)piperidin-1-yl)acetamide]: the IC50 turned out to be 6210 nM against human TLR9, 1.4 nM against human TLR8 and 18.3 nM on human TLR7.
On the same counts, the results for `Cc1cc(-c2cc(C)c3ncnn3c2)cc2[nH]nc(OC3CCC(NCCS(C)(=O)=O)CC3)c12` (stereo not drawn) [Example 188, 4-((4-methyl-6-(8-methyl-[1,2,4]triazolo[1,5-a]pyridin-6-yl)-1H-indazol-3-yl)oxy)-N-(2-(methylsulfonyl)ethyl)cyclohexan-1-amine] are 4340 nM, 2.3 nM and 4 nM.
Turning to `Cc1cc(-c2cc3[nH]nc(C4CCC(NC5CC5)CC4)c3cc2C(C)C)cn2ncnc12` (single isomer, unassigned) [Example 118, N-cyclopropyl-4-(5-isopropyl-6-(8-methyl-[1,2,4]triazolo[1,5-a]pyridin-6-yl)-1H-indazol-3-yl)cyclohexan-1-amine], the IC50 on human TLR9 stood at 4130 nM; at human TLR8, 0.1 nM; at human TLR7 it was 0.3 nM.

Values taken from patent US12172995B2, “Substituted indole and indazole compounds” (BRISTOL-MYERS SQUIBB COMPANY, priority 2018, dated 2024).
